Laboratory results reported in US20250122202A1, “EGFR INHIBITOR, PREPARATION METHOD THEREFOR AND USE THEREOF” (SHANDONG NEW TIME PHARMACEUTICAL CO., LTD., priority 2021, published 2025).
Read-outs that look alike come from different tables or passages of the source. Each block holds one molecule with its values, some of them ahead of it.

Assays:
[1] = molecular target: EGFR-Del19/T790M/C797S kinase (Homo sapiens, UniProt P00533, C797S/T790M, form not given); assay: In-vitro enzyme experiment 2 (HTRF kinase assay), EGFR Del19 T790M C797S; type: biochemical; settings: read-out: enzyme inhibition IC50 (nM) EGFR-Del19/T790M/C797S
Chain of EGFR-Del19/T790M/C797S kinase (P00533 25-1210 T790M/C797S limits assumed, form open): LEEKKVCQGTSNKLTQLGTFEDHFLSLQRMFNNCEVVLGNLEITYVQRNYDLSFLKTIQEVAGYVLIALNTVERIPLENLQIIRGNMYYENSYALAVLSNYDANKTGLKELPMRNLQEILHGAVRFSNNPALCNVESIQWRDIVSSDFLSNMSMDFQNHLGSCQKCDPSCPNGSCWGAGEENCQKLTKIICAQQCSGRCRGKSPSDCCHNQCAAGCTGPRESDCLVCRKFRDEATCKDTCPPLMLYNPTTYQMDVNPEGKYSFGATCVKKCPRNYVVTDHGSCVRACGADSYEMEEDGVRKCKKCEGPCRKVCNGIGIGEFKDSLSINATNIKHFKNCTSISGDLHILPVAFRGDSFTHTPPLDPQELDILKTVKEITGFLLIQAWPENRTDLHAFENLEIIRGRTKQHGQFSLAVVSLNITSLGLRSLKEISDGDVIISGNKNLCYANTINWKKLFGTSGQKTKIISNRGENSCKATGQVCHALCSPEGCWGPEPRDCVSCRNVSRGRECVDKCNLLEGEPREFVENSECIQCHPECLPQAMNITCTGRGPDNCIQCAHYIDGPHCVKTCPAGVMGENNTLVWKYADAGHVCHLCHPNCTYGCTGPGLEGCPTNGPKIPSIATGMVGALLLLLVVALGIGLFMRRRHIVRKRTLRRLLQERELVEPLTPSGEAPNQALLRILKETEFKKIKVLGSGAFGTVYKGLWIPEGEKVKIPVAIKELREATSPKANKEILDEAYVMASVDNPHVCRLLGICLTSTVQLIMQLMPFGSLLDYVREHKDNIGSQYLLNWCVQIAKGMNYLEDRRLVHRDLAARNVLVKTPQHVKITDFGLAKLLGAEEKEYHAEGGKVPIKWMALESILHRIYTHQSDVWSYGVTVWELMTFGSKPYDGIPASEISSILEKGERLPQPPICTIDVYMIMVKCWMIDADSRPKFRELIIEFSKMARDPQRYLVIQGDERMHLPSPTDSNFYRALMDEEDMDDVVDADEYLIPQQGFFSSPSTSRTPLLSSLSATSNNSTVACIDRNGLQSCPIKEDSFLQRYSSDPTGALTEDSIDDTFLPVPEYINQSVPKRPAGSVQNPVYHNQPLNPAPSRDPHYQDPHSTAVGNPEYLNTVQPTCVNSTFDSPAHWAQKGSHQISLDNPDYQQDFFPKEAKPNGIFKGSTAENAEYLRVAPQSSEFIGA
Protocol: The specific experiment was as follows: • 1. […] Test method of activity of compound • a) a compound diluent was transferred to each well of an assay plate (784075, Greiner) using Echo 550; • b) the assay plate was sealed and centrifuged at 1,000 g for 1 min; • c) 2×EGFR (D770-N771 ins NPG T790M) was prepared in a 1× kinase buffer; • d) 5 μl of the 2×EGFR (D770-N771 ins NPG T790M) was added to a 384-well assay plate (784075, Greiner); • e) the assay plate was centrifuged at 1,000 g for 30 s and incubated at room temperature for 10 min; • f) 2× TK-substrate-biotin (2 μM) and ATP were added to the 1× kinase buffer and mixed; • g) the reaction was started after adding 5 μl of the TK-substrate-biotin (2 μM) and ATP mixture; • h) the assay plate was centrifuged at 1,000 g for 30 s; and the assay plate was sealed and incubated at room temperature for 40 min; • i) 4× Sa-XL 665 was prepared in an HTRF detection buffer; • j) 5 μl of the Sa-XL 665 and 5 μl of a TK-antibody-cryptate were added to each well of the assay plate; • k) the assay plate was centrifuged at 1,000 g for 30 s and incubated at room temperature for 1 h; and • l) fluorescence signals at 615 nm (cryptate) and 665 nm (XL665) were read on an Envision 2104 reader. • 3. Data analysis • 3.1 Calculation of ratio (665/615 nm) of each well • 3.2 Calculation of inhibition rate
[formula] • 3.3 Calculation of IC50 value of compound and drawing dose-effect curve of compound • IC50 values were calculated using GraphPad 6.0 by applying a non-linear regression curve (dose-effect relationship-variable slope) of the logarithm of the compound concentration versus the inhibition rate.
The preparation of the kinase buffer, the test method of the activity of the compound, and the data analysis referred to the relevant definitions in example 117, wherein step c) of the test method of the activity of the compound was replaced by preparing 2×EGFR Del19 T790M C797S in the 1× kinase buffer.

[2] = system: KC-1474:PC-9 EGFR-Del19/T790M/C797S; assay: Cell proliferation inhibition experiment (CCK-8), KC-1474; type: cell-based; settings: Homo sapiens, 72 h
Text: (§1) Inhibition rate %=[(A0−AS)/(A0−AC)]×100%.

[3] = system: KC-0178:NCI-1975 EGFR-L858R/T790M/C797S; assay: Cell proliferation inhibition experiment (CCK-8), KC-0178; type: cell-based; settings: Homo sapiens, 72 h
Text: as §1

[4] = system: PC-9 EGFR-Del19; assay: Cell proliferation inhibition experiment (CCK-8), PC-9; type: cell-based; settings: Homo sapiens, 72 h
Text: as §1

[5] = system: H1975 EGFR-L858R/T790M; assay: Cell proliferation inhibition experiment (CCK-8), H1975; type: cell-based; settings: Homo sapiens, NCI-H1975, 72 h
Text: as §1

[6] = system: A549 EGFR-WT; assay: Cell proliferation inhibition experiment (CCK-8), A549; settings: Homo sapiens, A549, 72 h
[7] = read-out: cell proliferation inhibition IC50 (μM) A549, 72 h, CCK-8
[8] = read-out: cell proliferation inhibition IC50 (μM) A549
[9] = read-out: cell proliferation inhibition IC50 (μM) A549, 72 h, CCK-8, Table 5 numeric

SMILES: CN1CCN(c2ccc(Nc3nc(N[C@H]4CC[C@@H](O)CC4)c4c(C(=O)c5ccc(F)cc5)c[nH]c4n3)cc2)CC1 [Example 55]
IC50 [1]: 10 to 100 nM
IC50 [2]: < 0.1 µM
IC50 [3]: 0.1 to 1 µM
IC50 [4]: < 0.1 µM
IC50 [5]: 0.1 to 1 µM
IC50 [6, 7]: 0.1 to 1 µM

SMILES: CN1CCC(Nc2nc(Nc3ccc(N4CCN(C)CC4)cc3)nc3[nH]cc(C(=O)c4ccc(F)cc4)c23)CC1 [Example 85]
IC50 [1]: 100 to 600 nM

SMILES: COc1nn(C)cc1Nc1nc(N[C@H]2CC[C@@H](CO)CC2)c2c(C(=O)c3ccc(F)cc3)c[nH]c2n1 [Example 116]
IC50 [1]: 10 to 100 nM
IC50 [2]: 0.1 to 1 µM
IC50 [3]: 1 to 2 µM
IC50 [4]: < 0.1 µM
IC50 [5]: 0.1 to 1 µM
IC50 [6, 7]: 1 to 2 µM

SMILES: COc1cc(N2CCC(N3CCN(C)CC3)CC2)ccc1Nc1ncc(Cl)c(Nc2ccccc2P(C)(C)=O)n1 [Brigatinib, reference compound]
IC50 [6, 8]: 6.13 µM

SMILES: O=C(c1ccccc1)c1c[nH]c2nc(Nc3ccc(N4CCOCC4)cc3)nc(N[C@H]3CC[C@H](CO)CC3)c12 [Example 98]
IC50 [1]: 100 to 600 nM

SMILES: CN1CCN(c2ccc(Nc3nc(N[C@@H]4CC[C@@H](CO)OC4)c4c(C(=O)c5ccc(F)cc5)c[nH]c4n3)cc2)CC1 [Example 95]
IC50 [1]: 10 to 100 nM
IC50 [2]: 0.1 to 1 µM
IC50 [3]: < 0.1 µM

SMILES: CN1CCN(c2ccc(Nc3nc(N[C@@H]4CCCN(S(C)(=O)=O)C4)c4c(C(=O)c5ccc(F)cc5)c[nH]c4n3)cc2)CC1 [Example 50]
IC50 [1]: 100 to 600 nM

SMILES: CN1CCN(c2ccc(Nc3nc(N[C@H]4CCOC4)c4c(C(=O)c5ccc(F)cc5)c[nH]c4n3)cc2)CC1 [Example 67]
IC50 [1]: 100 to 600 nM

SMILES: CN1CCN(c2ccc(Nc3nc(N[C@H]4CC[C@@H](N)CC4)c4c(C(=O)c5ccc(F)cc5)c[nH]c4n3)cc2)CC1 [Example 86]
IC50 [1]: < 10 nM
IC50 [2]: < 0.1 µM
IC50 [3]: 1 to 2 µM
IC50 [4]: < 0.1 µM
IC50 [5]: 0.1 to 1 µM

SMILES: C=CC(=O)Nc1cccc(Oc2nc(Nc3ccc(N4CCN(C)CC4)c(F)c3)nc3[nH]ccc23)c1 [Avitinib, reference compound]
IC50 [2]: 0.1 to 1 µM
IC50 [3]: 1 to 2 µM
IC50 [6, 9]: 1.06 µM

SMILES: O=C(c1cc(F)cc(F)c1)c1c[nH]c2nc(Nc3ccc(N4CCOCC4)cc3)nc(N[C@H]3CC[C@H](CO)CC3)c12 [Example 101]
IC50 [6, 9]: 0.46 µM

SMILES: COc1cc(N2CCN(C)CC2)ccc1Nc1nc(N[C@H]2CC[C@H](CO)CC2)c2c(C(=O)c3ccc(F)cc3)c[nH]c2n1 [Example 80]
IC50 [1]: 100 to 600 nM

SMILES: O=C(c1ccc(F)c(F)c1F)c1c[nH]c2nc(Nc3ccc(N4CCOCC4)cc3)nc(N[C@H]3CC[C@H](CO)CC3)c12 [Example 108]
IC50 [1]: 100 to 600 nM

SMILES: CN1CCN(c2ccc(Nc3nc(N[C@@H]4CCOC4)c4c(C(=O)c5ccc(F)cc5)c[nH]c4n3)cc2)CC1 [Example 68]
IC50 [1]: 100 to 600 nM

SMILES: CN1CCN(c2ccc(Nc3nc(NC4(CO)CCCC4)c4c(C(=O)c5ccc(F)cc5)c[nH]c4n3)cc2)CC1 [Example 11]
IC50 [1]: 100 to 600 nM

SMILES: C=CC(=O)Nc1cc(Nc2nccc(-c3cn(C)c4ccccc34)n2)c(OC)cc1N(C)CCN(C)C [Osimertinib, reference compound]
IC50 [2]: 1 to 2 µM
IC50 [3]: 1 to 2 µM
IC50 [6, 8]: 3.01 µM

SMILES: O=C(c1ccc(F)cc1)c1c[nH]c2nc(Nc3ccc(N4CCOCC4)cc3)nc(N[C@@H]3CC[C@@H](CO)OC3)c12 [Example 94]
IC50 [1]: 10 to 100 nM

SMILES: CN1CCN(c2ccc(Nc3nc(N[C@@H]4CCCN(S(=O)(=O)C5CC5)C4)c4c(C(=O)c5ccc(F)cc5)c[nH]c4n3)cc2)CC1 [Example 3]
IC50 [6, 8]: 2.67 µM

SMILES: O=C(c1ccc(F)cc1)c1c[nH]c2nc(Nc3ccc(N4CCOCC4)c(F)c3)nc(N[C@H]3CC[C@H](CO)CC3)c12 [Example 82]
IC50 [1]: 100 to 600 nM

SMILES: CN1CCN(c2ccc(Nc3nc(NC4CCCCC4)c4c(C(=O)c5ccc(F)cc5)c[nH]c4n3)cc2)CC1 [Example 41]
IC50 [1]: 100 to 600 nM

SMILES: CN1CCN(c2ccc(Nc3nc(N[C@H]4CCCOC4)c4c(C(=O)c5ccc(F)cc5)c[nH]c4n3)cc2)CC1 [Example 57]
IC50 [1]: 100 to 600 nM

SMILES: CN1CCN(c2ccc(Nc3nc(OC4CCOCC4)c4c(C(=O)c5ccc(F)cc5)c[nH]c4n3)cc2)CC1 [Example 84]
IC50 [1]: 100 to 600 nM

SMILES: CO[C@H]1CC[C@H](Nc2nc(Nc3ccc(N4CCN(C)CC4)cc3)nc3[nH]cc(C(=O)c4ccc(F)cc4)c23)CC1 [Example 73]
IC50 [1]: 100 to 600 nM

Continued, in another order:

IC50 [6, 9]: 0.61 µM
SMILES: CN1CCN(c2ccc(Nc3nc(N[C@H]4CCCN(S(=O)(=O)C5CC5)C4)c4c(C(=O)c5ccc(F)cc5)c[nH]c4n3)cc2)CC1 [Example 21]

IC50 [1]: 10 to 100 nM
SMILES: CN1CCN(c2ccc(Nc3nc(NC4(CO)CC4)c4c(C(=O)c5ccc(F)cc5)c[nH]c4n3)cc2)CC1 [Example 10]

IC50 [1]: 100 to 600 nM
SMILES: CN1CCN(c2ccc(Nc3nc(NCC4CCOCC4)c4c(C(=O)c5ccc(F)cc5)c[nH]c4n3)cc2)CC1 [Example 59]

IC50 [1]: 100 to 600 nM
SMILES: CN1CCN(c2ccc(Nc3nc(NC4CCN(S(=O)(=O)C5CC5)CC4)c4c(C(=O)c5ccc(F)cc5)c[nH]c4n3)cc2)CC1 [Example 63]

IC50 [1]: 100 to 600 nM
SMILES: CN1CCN(c2ccc(Nc3nc(N[C@@H]4CCN(S(C)(=O)=O)C4)c4c(C(=O)c5ccc(F)cc5)c[nH]c4n3)cc2)CC1 [Example 49]

IC50 [1]: 10 to 100 nM
IC50 [2]: 0.1 to 1 µM
IC50 [4]: < 0.1 µM
IC50 [5]: 0.1 to 1 µM
SMILES: CN(C)CCOc1ccc(Nc2nc(N[C@H]3CC[C@@H](CO)CC3)c3c(C(=O)c4ccc(F)cc4)c[nH]c3n2)cc1 [Example 107]
IC50 [3]: 1 to 2 µM

IC50 [6, 9]: 0.29 µM
SMILES: O=C(c1ccc(F)cc1Cl)c1c[nH]c2nc(Nc3ccc(N4CCOCC4)cc3)nc(N[C@H]3CC[C@H](CO)CC3)c12 [Example 105]

IC50 [6, 9]: 6.53 µM
SMILES: Cn1cc(Nc2nc(N[C@@H]3CCCN(S(=O)(=O)C4CC4)C3)c3c(C(=O)c4ccc(F)cc4)c[nH]c3n2)cn1 [Example 4]

IC50 [1]: 100 to 600 nM
SMILES: COc1nn(C)cc1Nc1nc(N[C@H]2CC[C@H](CO)CC2)c2c(C(=O)c3ccc(F)cc3)c[nH]c2n1 [Example 112]

IC50 [1]: 10 to 100 nM
IC50 [2]: < 0.1 µM
IC50 [4]: < 0.1 µM
IC50 [5]: 0.1 to 1 µM
SMILES: CN1CCN(c2ccc(Nc3nc(N[C@H]4CC[C@H](CO)CC4)c4c(C(=O)c5ccc(F)cc5)c[nH]c4n3)cc2F)CC1 [Example 78]
IC50 [3]: 1 to 2 µM

IC50 [1]: 100 to 600 nM
SMILES: CN1CCN(c2ccc(Nc3nc(N[C@@H]4CCCOC4)c4c(C(=O)c5ccc(F)cc5)c[nH]c4n3)cc2)CC1 [Example 58]

IC50 [2]: 0.1 to 1 µM
SMILES: Cc1ccc(C(=O)c2c[nH]c3nc(Nc4ccc(N5CCOCC5)cc4)nc(N[C@H]4CC[C@H](CO)CC4)c23)cc1 [Example 97]
IC50 [3]: 0.1 to 1 µM

IC50 [1]: 10 to 100 nM
IC50 [2]: 0.1 to 1 µM
SMILES: COc1cc(N2CCN(C)CC2)ccc1Nc1nc(N[C@H]2CC[C@@H](CO)CC2)c2c(C(=O)c3ccc(F)cc3)c[nH]c2n1 [Example 106]
IC50 [3]: 1 to 2 µM

IC50 [6, 9]: 0.76 µM
SMILES: CC(C)N1CCC(Nc2nc(Nc3ccc(N4CCOCC4)cc3)nc3[nH]cc(C(=O)c4ccc(F)cc4)c23)CC1 [Example 99]

IC50 [6, 9]: 0.92 µM
SMILES: COc1cc(N2CCOCC2)ccc1Nc1nc(N[C@H]2CC[C@H](CO)CC2)c2c(C(=O)c3ccc(F)cc3)c[nH]c2n1 [Example 81]
